# Values joined by “and” are separate entries in the source; they are usually repeats but may differ in a detail not shown here. Equal entries are not always repeated. Structures can show the parent of a compound that is named as a salt. Where two headings read alike, the source gives them in different places.
# Tests used:
# OR5P3 = molecular target: T1, OR5P3 (Homo sapiens, UniProt Q8WZ94); assay: GloSensor cAMP assay, OR5P3-transfected Hana3A cells; type: cell-based; settings: activation of OR5P3, Hana3A cells, mean ± s.e.m., at least three experiments
# T1 construct: host or cells: Hana3A cells (HEK293T-derived), co-transfected with pCI-RTP1S and pGlo-22F
# T1 sequence (Q8WZ94 1-311): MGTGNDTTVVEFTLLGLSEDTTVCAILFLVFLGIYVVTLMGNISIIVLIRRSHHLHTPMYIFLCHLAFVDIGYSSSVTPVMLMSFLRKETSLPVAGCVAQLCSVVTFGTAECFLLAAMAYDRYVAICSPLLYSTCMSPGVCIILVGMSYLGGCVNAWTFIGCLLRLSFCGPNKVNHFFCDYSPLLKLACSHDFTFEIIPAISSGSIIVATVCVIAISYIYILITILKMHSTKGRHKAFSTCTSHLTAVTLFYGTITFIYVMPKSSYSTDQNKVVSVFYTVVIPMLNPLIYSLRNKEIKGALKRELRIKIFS
# Source text: (§1) To validate predicted interactions between odorant compounds and ORs or the CB1 receptor, we used the GloSensor cAMP assay from Promega and measured the EC50 values of compounds. This luminescent assay is a sensitive method for measuring Gs and Gi- protein coupled receptor activation by real-time detection of intracellular second messenger cAMP [44]. The protocol is described in the GloSensor cAMP assays paragraph in the Supplementary Methods (S_file).
# (§2) All odorants used in these assays were purchased from Sigma-Aldrich (Saint-Quentin Fallavier, France) except celery ketone, which was kindly provided by B. Schilling (Givaudan Schweiz AG, Dübendorf, Switzerland). The stock solutions of odorants (100 mM) were prepared in dimethylsulfoxide (DMSO) and were stored at -20°C. Immediately prior to the assays, the stock solutions of odorants were diluted in the CO2-independent medium (Gibco®, Life Technologies) to the appropriate concentrations. The final concentration of DMSO in wells never exceeded 1% (v/v); this concentration had no effect on GloSensor cAMP assays.
# (§3) To validate predicted odorant compound-OR interactions, we used the GloSensor™ cAMP assay (Promega, Charbonnières-Les-Bains, France) to measure EC50 values of compounds. The functional assay was performed in Hana3A cells, a HEK293T-derived cell line optimized for OR expression. Hana3A cells were grown in Minimal Essential Medium (MEM; Life Technologies, Villebon-sur-Yvette, France) supplemented with 10% fetal bovine serum (PAA Laboratories, Les Mureaux, France), 100 μM Eagle’s non-essential amino acids, 2 mM glutamax (Life Technologies) and 1 μg/ml puromycin (Sigma-Aldrich, Saint-Quentin Fallavier, France). The cells were cultured at 37°C in a humidified atmosphere containing 7.3% CO2. Forty-eight hours before performing the GloSensor™ cAMP assay, cells were plated on poly-D-lysine coated 96-well plates (BD Biosciences, Le Pont de Claix, France) at a density of 3x10^4 cells per well. […] Luminescence was measured with a Victor 3V plate reader (Perkin Elmer, Courtaboeuf, France) after addition of odorant solutions (10 μl). […]
# Hana3A cells = assay: Cytotoxic effects seen in the OR GloSensor assay; type: cell-based; settings: no saturation of the response could be observed
# Experimental: as §3, with “well. Twenty-four hours later, cells were transiently transfected with the OR expression plasmid (50 ng per well) together with the pCI-RTP1S plasmid and the pGlo™-22F cAMP plasmid (Promega) (10 ng and 100 ng per well, respectively) using Fugene®HD (Promega) according to the manufacturer instructions.” for “well.”
# [1] = molecular target: human cannabinoid receptor CB1 (Homo sapiens, UniProt P21554); assay: GloSensor cAMP assay, CB1-transfected HEK293 cells; type: cell-based; settings: for EC50: increase in cAMP production, forskolin-stimulated control cells, mean ± s.e.m., three experiments
# human cannabinoid receptor CB1, sequence (P21554 whole entry): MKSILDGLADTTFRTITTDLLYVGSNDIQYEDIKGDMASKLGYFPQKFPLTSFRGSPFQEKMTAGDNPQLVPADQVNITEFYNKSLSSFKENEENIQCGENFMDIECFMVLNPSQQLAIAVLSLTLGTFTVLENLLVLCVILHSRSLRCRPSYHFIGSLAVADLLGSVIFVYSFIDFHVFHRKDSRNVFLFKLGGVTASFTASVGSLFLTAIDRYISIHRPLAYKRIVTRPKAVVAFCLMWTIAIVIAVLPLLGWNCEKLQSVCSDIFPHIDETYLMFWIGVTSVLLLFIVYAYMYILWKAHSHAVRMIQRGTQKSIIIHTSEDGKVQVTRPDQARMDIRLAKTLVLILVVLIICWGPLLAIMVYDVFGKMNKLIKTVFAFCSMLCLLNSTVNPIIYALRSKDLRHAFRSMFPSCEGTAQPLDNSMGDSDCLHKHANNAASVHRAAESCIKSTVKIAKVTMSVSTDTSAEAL
# OR2W1 = molecular target: T2, OR2W1 (Homo sapiens, UniProt Q9Y3N9); assay: GloSensor cAMP assay, OR2W1-transfected Hana3A cells; type: cell-based; settings: activation of OR2W1, Hana3A cells, mean ± s.e.m., at least three experiments
# T2 construct: host or cells: Hana3A cells (HEK293T-derived), co-transfected with pCI-RTP1S and pGlo-22F
# T2 sequence (Q9Y3N9 1-320): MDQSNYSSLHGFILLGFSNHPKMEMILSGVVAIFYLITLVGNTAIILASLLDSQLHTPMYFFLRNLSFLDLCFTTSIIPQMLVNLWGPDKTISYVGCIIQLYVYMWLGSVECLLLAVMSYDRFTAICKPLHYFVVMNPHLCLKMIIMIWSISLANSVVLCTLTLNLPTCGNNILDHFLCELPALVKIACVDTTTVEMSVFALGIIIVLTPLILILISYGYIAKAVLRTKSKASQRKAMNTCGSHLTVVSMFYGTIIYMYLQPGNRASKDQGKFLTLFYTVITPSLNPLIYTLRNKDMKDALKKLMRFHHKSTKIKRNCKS
# Source text: as §1, §2, §3
# OR51E1 = molecular target: T3, OR51E1 (Homo sapiens, UniProt Q8TCB6); assay: GloSensor cAMP assay, OR51E1-transfected Hana3A cells; type: cell-based
# T3 construct: host or cells: Hana3A cells (HEK293T-derived), co-transfected with pCI-RTP1S and pGlo-22F
# T3 sequence (Q8TCB6 1-318): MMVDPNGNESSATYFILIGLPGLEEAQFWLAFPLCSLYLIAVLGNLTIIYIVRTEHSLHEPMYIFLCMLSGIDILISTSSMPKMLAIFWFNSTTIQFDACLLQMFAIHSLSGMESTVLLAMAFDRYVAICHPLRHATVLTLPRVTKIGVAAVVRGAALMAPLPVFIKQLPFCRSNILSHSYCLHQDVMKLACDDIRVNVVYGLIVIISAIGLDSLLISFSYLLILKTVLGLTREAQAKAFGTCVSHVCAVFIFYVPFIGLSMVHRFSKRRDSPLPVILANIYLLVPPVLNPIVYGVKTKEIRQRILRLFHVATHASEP
# Source text: as §1, §2
# as §3, with “well. Twenty-four hours later, cells were transiently transfected with the OR expression plasmid (50 ng per well) together with the pCI-RTP1S plasmid and the pGlo™-22F cAMP plasmid (Promega) (10 ng and 100 ng per well, respectively) using Fugene®HD (Promega) according to the manufacturer instructions. In addition, to check that induced activities are OR-dependent, mock transfections were performed by transfecting the cells with the pCI plasmid in place of the OR expression plasmid.” for “well.”
# [2] = molecular target: T4, human PPARγ ligand binding domain (Homo sapiens, UniProt P37231); assay: Competitive PPARγ binding assay (LanthaScreen TR-FRET); settings: IC50 (inhibition of binding), displacement of fluorescent pan PPAR agonist tracer
# T4 sequence (P37231 238-503 limits assumed): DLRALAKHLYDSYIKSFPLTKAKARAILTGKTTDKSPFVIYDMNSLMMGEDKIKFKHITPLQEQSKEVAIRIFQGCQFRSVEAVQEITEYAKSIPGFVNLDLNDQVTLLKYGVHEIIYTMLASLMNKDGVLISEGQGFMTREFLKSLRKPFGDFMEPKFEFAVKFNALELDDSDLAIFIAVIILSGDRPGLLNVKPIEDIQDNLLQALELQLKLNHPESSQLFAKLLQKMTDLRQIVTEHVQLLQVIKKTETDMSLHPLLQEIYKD
# Experimental: To validate predictions of odorant-PPARγ interactions, IC50 values for respective compounds were determined by competitive binding using time-resolved fluorescence resonance energy transfer (LanthaScreen, Invitrogen) on a Wallac EnVision (PerkinElmer).
# To validate predictions of odorant-PPARγ interactions, IC50 values for respective compounds were determined by competitive binding using time-resolved fluorescence resonance energy transfer (LanthaScreen, Invitrogen) on a Wallac EnVision (PerkinElmer). A terbium labeled anti-GST antibody was used to label purified GST-tagged human PPARγ ligand binding domain. Energy transfer from terbium to the tracer, a fluorescent pan PPAR agonist, enabled read-out of each test compound’s ability to displace the tracer. […] An unrestrained sigmoidal (one-binding site) dose-response curve was fitted to each data set by linear regression allowing for determination of IC50 values.
# [3] = absence or presence of pertussis toxin
# [4] = activation of OR51E1, Hana3A cells, mean ± s.e.m., at least three experiments, read-out: EC50
smiles,measurement,setting,value
"C=C(C)C1CC=C(C)C(=O)C1 (single isomer, unassigned; (-)) [(-)-carvone, reference compound]",EC50,OR5P3,388 µM
CCCCCCCCO [1-octanol],EC50,OR5P3,115 µM
same,concentrations with cytotoxic effects,Hana3A cells,higher than 10^−3 M
CCCCCCCC(C)=O [2-Nonanone],mode of action at CB1,[1]; [3],inverse agonists
same,EC50,[1],363 ± 80.7 µM
CCCCCC(=O)OCCc1ccccc1 [2-Phenylethyl hexanoate],mode of action at CB1,[1]; [3],inverse agonists
same,EC50,[1],509 ± 8.3 µM
"CC(=O)OCc1ccccc1 [Benzyl acetate, reference compound]",EC50,OR2W1,34.3 ± 1.17 µM
CC(C)=CCC/C(C)=C/C=O [Citral],EC50,OR2W1,129 µM
CC(C)=CCCC(C)CC=O (stereo not drawn) [Citronellal],EC50,OR2W1,208 µM
"CCCCCCC(C)(C)c1cc(O)c2c(c1)OC(C)(C)[C@@H]1CC=C(CO)C[C@@H]21 [HU210, (6aR)-trans-3-(1,1-dimethylheptyl)-6a,7,10,10a,-tetrahydro-1-hydroxy-6,6-dimethyl-6H-dibenzo[b,d]pyran-9-methanol, reference compound]",mode of action at CB1,[1],agonists
CC(C)CC(=O)O [Isovaleric acid],EC50,OR51E1; [4],153 µM
"CCCCCCCCC(=O)O [Nonanoic acid, reference compound]",EC50,OR51E1,197 µM
CCC(=O)O [Propionic acid],fold lower activity,"OR51E1; OR51E1, compared with isovaleric acid and nonanoic acid",5 fold
same,EC50,OR51E1; [4],923 µM
CCCCOC(=O)CC(CC(=O)OCCCC)(OC(C)=O)C(=O)OCCCC [Tributyl acetyl citrate],mode of action at CB1,[1]; [3],inverse agonists
same,EC50,[1],122 ± 25.2 µM
CCCC1CC(=O)C=C(C)C1 (stereo not drawn) [celery ketone],EC50,OR5P3,483 µM
same,concentrations with cytotoxic effects,Hana3A cells,higher than 10^−3 M
O=C1C[C@@H](c2ccc(O)cc2)Oc2cc(O)cc(O)c21 [naringenin],IC50,[2],7.4 µM
O=C(OCCc1ccccc1)c1ccccc1O [phenylethyl salicylate],IC50,[2],9.2 µM and 14.7 µM

# From publication PMC3973694, “Identification of Odorant-Receptor Interactions by Global Mapping of the Human Odorome” (PLoS ONE, 2014)
